In patent publication US20050191693A1, “Methods and cell populations for identifying and validating genomic targets, and for drug screening” (priority 2001, published 2005):
Where two headings read alike, the source gives them in different places.

Assays:
[1] = system: ES-cell derived cardiomyocytes; assay: Beating frequency of ES cell-derived cardiomyocytes (contractions counted manually during 15 sec); format: cell-based, mouse; conditions: cardiomyocytes 25 days after start of differentiation
Procedure: Gated cardiomyocytes where cultivated in 6 cm tissue culture dishes. Fresh medium was supplemented with the test compound in concentrations ranging from 0.01-10 μM. For heat shock treatment the cells where incubated at 42° C. for 30 min. Mock treated cells served as control. Effects on the cardiomyocyte beating rate where recorded by manually counting the number of contractions during 15 sec. Beating rates have been recorded before addition of substances and 15 min and 4h after addition. After 4h of incubation the cells where washed with PBS, collected in reporter lysis buffer (RLB, Promega) and stored at −80° C.
Effects of noradrenaline are mediated via alpha and beta-adrenergic receptors, while isoproterenol effects are mediated specific via β-adrenergic receptors. Since β1 receptors play a pivotal role in mediating the beating rate, we analyzed changes in beating frequency of cardiomyocytes as a first indication of a response towards the tested compounds. The beating rate of a individual cluster per plate has been recorded before, 15 min after application of the stimulus and after 4h incubation. FIG. 3 summarizes the data of such an analysis using cardiomyocytes 25 days after start of differentiation. […] Due to the low starting beating frequency in some cases the x-fold increase is quite high. Nevertheless these elevated beating frequencies where still in the physiological range. […]

CT-1 promoter = assay: CT1-promoter luciferase reporter activity in ES cell-derived cardiomyocytes; format: cell-based, mouse; conditions: 0.1 μM, incubation for 4h, corrected for total protein
Procedure: Gated cardiomyocytes where cultivated in 6 cm tissue culture dishes. Fresh medium was supplemented with the test compound in concentrations ranging from 0.01-10 μM. For heat shock treatment the cells where incubated at 42° C. for 30 min. Mock treated cells served as control. […] After 4h of incubation the cells where washed with PBS, collected in reporter lysis buffer (RLB, Promega) and stored at −80° C. The Luciferase-activity in the thawed lysates was measured by flash-light Luciferase assay (Promega). In order to quantify Luciferase-activity a serial diluted recombinant Luciferase standard was analyzed in parallel. Values for Luciferase-activity where correct for the amount of total protein in the lysates measured by BCA-assay (Pierce). The transcriptional activity of the CT1-promoter was analyzed by measurement of Luciferase activity in the cellular lysates.

[2] = system: cardiomyocyte nuclei in the ventricular septum; parameters: species or system mice; conditions: mouse, in vivo, 7 days
Procedure: Cryosections (10 μm) were generated using standard histologic techniques. For ISEL analysis, cryosections were processed using the Oncogene Research KLENOW-FragEL DNA Fragmentation Detection Kit. Signal was developed with biotinylated nucleotides and horseradish peroxidase (HRP) conjugated streptavidin (Roche Molecular Biochemicals). Signal was generated by incubation with diaminobenzidine using standard techniques. Beta-galactosidase activity was detected in the same sections via X-GAL staining as described (Soonpaa M. H. et al. (1994) Science 264: 98-101).
Isoproterenol is a beta-adrenergic agonist that induces cardiomyocyte hypertrophy both in vitro and in vivo. Prolonged exposure to isoproterenol is cardiotoxic, inducing cardiomyocyte apoptosis via a mechanism similar to that encountered during the progression of heart failure. The MHC-1152stp mice were tested to determine if transgene expression was cardioprotective during isoproterenol infusion, and specifically to see if 1152stp expression could antagonize isoproterenol-induced cardiomyocyte apoptosis. […]
Mice with a MHC-1152stp/MHC-nLAC genotype and a (−)/MHC-nLAC genotype were culled, and at 12 weeks of age were implanted with isoproterenol-filled osmotic mini-pumps, as described in several studies from our group (Soonpaa M. H. and Field L. J. (1994) American Journal of Physiology 266 (Heart and Circulatory Physiology 35): H1439-1445; Pasumarthi K. B., Nakajima H., Nakajima H. O., Jing S., Field L. J. (2000) Circ Res. 86: 1069-1077). […] Cardiomyocyte apoptosis was then calculated simply by determining the incidence of black HRP signal over blue nuclear staining; these analyses focused on cardiomyocytes residing in the ventricular septum, where the cardiotoxic effects of isoproterenol appear to be most pronounced. […]

[3] = MHC-nLAC transgenic ((−)/MHC-nLAC genotype)

Row | % ISEL Positive ([2]; (−)/MHC-nLAC transgenic) [%] | % ISEL Positive [2, 3] [%] | ISEL Positive CM Nuclei [2, 3] | Structure (SMILES) | change in beating frequency ([1]; 0.1 μM) | increase of CT1-promoter activity (Luciferase activity) compared to the untreated control (CT-1 promoter) | change in beating frequency ([1]; recorded before, 15 min and 4h after application, 0.01-10 μM)
1 |  |  |  | CN(C)CCCN1c2ccccc2CCc2ccccc21 [imipramine] | increase in beating frequencies | more than 2 fold | 
2 | ~0.1 | 0.098 | 35 of 35604 | CC(C)NCC(O)c1ccc(O)c(O)c1 (stereo not shown) [isoproterenol] |  |  | 
3 |  |  |  | NC[C@H](O)c1ccc(O)c(O)c1 [noradrenaline] |  | 1.73 fold | dose dependent increase
